Data: BindingDB's records for doi:10.7270/Q2319T8T (The Scripps Research Institute Molecular Screening Center, 2007)
pIC50: −log10 of the molar value. Where a name gives a salt, the structure may show the parent alone.

Target: Steroidogenic factor 1 (Homo sapiens, UniProt Q13285)
Assay: SF-1 inhibitor potency, dose response, cell-based, CHO-K1, Gal4-SF-1 LBD, luciferase luminescence (AID 600)
[1] = inactive by the depositor's call

Chain of Steroidogenic factor 1 (Q13285 whole entry, the tested form may be a part): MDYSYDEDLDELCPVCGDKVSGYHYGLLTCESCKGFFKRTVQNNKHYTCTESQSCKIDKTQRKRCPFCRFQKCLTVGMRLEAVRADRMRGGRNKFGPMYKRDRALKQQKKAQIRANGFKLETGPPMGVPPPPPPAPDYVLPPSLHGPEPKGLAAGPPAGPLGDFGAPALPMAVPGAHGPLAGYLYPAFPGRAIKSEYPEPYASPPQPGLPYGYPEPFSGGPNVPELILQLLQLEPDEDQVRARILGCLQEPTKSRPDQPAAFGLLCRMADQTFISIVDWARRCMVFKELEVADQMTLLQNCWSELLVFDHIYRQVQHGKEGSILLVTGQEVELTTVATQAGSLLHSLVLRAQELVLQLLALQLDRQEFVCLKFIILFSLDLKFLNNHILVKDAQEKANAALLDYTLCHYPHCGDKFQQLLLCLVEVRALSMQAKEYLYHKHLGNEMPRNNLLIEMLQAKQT

SMILES | pIC50 | pIC50 [1]
Cc1cccc(N2CCN(C(=O)CSCc3c(C)noc3C)CC2)c1C [2-[(3,5-dimethyl-1,2-oxazol-4-yl)methylsulfanyl]-1-[4-(2,3-dimethylphenyl)piperazin-1-yl]ethanone] | 6.06 | 
COc1ccc(OCc2cccc(C(=O)O)c2)cc1 [3-[(4-methoxyphenoxy)methyl]benzoic acid] | 6.38 | 
COc1ccc(C(=O)Nn2c(SCC(=O)NCC3CCCO3)nc3ccccc3c2=O)cc1 (centres undefined) [4-methoxy-N-[4-oxidanylidene-2-[2-oxidanylidene-2-(oxolan-2-ylmethylamino)ethyl]sulfanyl-quinazolin-3-yl]benzamide] | 5.37 | 
CCN(CC)c1ccc(-c2nn3c(-c4ccccc4OC)nnc3s2)cc1 | 5.30 | 
CCOC(=O)C1C(Cn2cnc3ccccc32)=NC(=O)NC1c1cc(C)ccc1C (centres undefined) [ethyl 6-(benzimidazol-1-ylmethyl)-4-(2,5-dimethylphenyl)-2-oxidanylidene-3,4-dihydro-1H-pyrimidine-5-carboxylate] | 4.63 | 
COc1cc(OC)cc(-c2cc3nc(C)c(CCC(=O)O)c(C)n3n2)c1 [3-[2-(3,5-dimethoxyphenyl)-5,7-dimethyl-6-pyrazolo[1,5-a]pyrimidinyl]propanoic acid] | 6.20 | 
CCc1ccc2oc(-c3cc(N)ccc3O)nc2c1 [(6E)-4-amino-6-(5-ethyl-3H-1,3-benzoxazol-2-ylidene)-1-cyclohexa-2,4-dienone] | < 5.44 | 
Cc1ccc(-c2cnc(NC(=O)CCC(=O)N3CCCCC3)n2C)cc1 [4-keto-N-[1-methyl-5-(p-tolyl)imidazol-2-yl]-4-piperidino-butyramide] | < 4.00 | 
COc1ccc(NC(=O)NCCCN2CCN(c3cc(C)ccc3C)CC2)cc1 [1-[3-[4-(2,5-dimethylphenyl)-1-piperazinyl]propyl]-3-(4-methoxyphenyl)urea] |  | 4.61
COc1ccc(C(=O)Nc2ccc(C)cn2)c(OC)c1 [2,4-dimethoxy-N-(5-methylpyridin-2-yl)benzamide] | 5.47 | 
Cc1ccc(-c2cc(C(=O)N3CCCC3)no2)cc1 [5-(4-methylphenyl)-3-(1-pyrrolidinylcarbonyl)isoxazole] | < 5.44 | 
Cc1ccc(-c2cn3nc(C)c(C)nc3n2)cc1 [2,3-dimethyl-6-(4-methylphenyl)imidazo[1,2-b][1,2,4]triazine] |  | 4.70
COC(=O)C1C(=CN2CCCc3ccccc32)NC(=O)NC1c1ccc(F)cc1 (centres undefined) [6-(3,4-dihydro-2H-quinolin-1-ylmethyl)-4-(4-fluorophenyl)-2-keto-3,4-dihydro-1H-pyrimidine-5-carboxylic acid methyl ester] | 5.27 | 
Cc1cnc(C(=O)Nc2cccc3cccnc23)cn1 [5-Methyl-pyrazine-2-carboxylic acid quinolin-8-ylamide] | 5.05 | 
c1ccc(-c2cn3c4c(sc3n2)CCCC4)cc1 [2-phenyl-5,6,7,8-tetrahydroimidazo[2,1-b][1,3]benzothiazole] | 5.34 | 
COc1cc(CN=O)ccc1OCc1ccc(C(=O)O)cc1 [4-[[4-(hydroximinomethyl)-2-methoxy-phenoxy]methyl]benzoic acid] | 5.94 | 
Cc1ccnc(NC(=O)CCCOc2cc(=O)n(C)c3ccccc23)c1 [4-(1-methyl-2-oxidanylidene-quinolin-4-yl)oxy-N-(4-methylpyridin-2-yl)butanamide] | 5.21 | 
COc1cc(CN2CCN(c3cc(C)ccc3C)CC2)ccc1O [4-[[4-(2,5-dimethylphenyl)-1-piperazinyl]methyl]-2-methoxyphenol] | 5.39 | 
N#CC1C(=N)C(C#N)(C#N)[C@H](c2ccncc2)[C@H]2CN(C(=O)OCc3ccccc3)CC=C12 (stereo partly drawn) [(8S,8aR)-6-amino-5,7,7-tricyano-8-(4-pyridyl)-1,3,8,8a-tetrahydroisoquinoline-2-carboxylic acid benzyl ester] | 4.83 | 
c1ccc(-c2nc(NCc3ccco3)c3ccccc3n2)nc1 [2-furfuryl-[2-(2-pyridyl)quinazolin-4-yl]amine] | 5.17 | 
CCNc1nc2c(c(=O)n(C)c(=O)n2C)n1Cc1ccc(Cl)cc1 [7-(4-chlorobenzyl)-8-(ethylamino)-1,3-dimethyl-xanthine] | < 5.44 | 
COc1cc([C@@H]2c3cc4c(cc3[C@H](O)[C@H]3COC(=O)[C@H]23)OCO4)cc(OC)c1OC [podophyllotoxin] | 7.34 | 
CC1CCCCN1S(=O)(=O)c1ccc(C(=O)Nc2nnc(-c3cccs3)o2)cc1 (centres undefined) [4-(2-methylpiperidin-1-yl)sulfonyl-N-(5-thiophen-2-yl-1,3,4-oxadiazol-2-yl)benzamide] |  | 4.75
Cc1ccc(-c2nc(-c3ccccc3)no2)c(Cl)c1 [5-(2-chloranyl-4-methyl-phenyl)-3-phenyl-1,2,4-oxadiazole] | 5.33 | 
CS(=O)(=O)c1nc(-c2ccccc2)cc(C(F)(F)F)n1 [MLS000044644] | 5.29 | 
COc1ccc(Cl)c(Cn2c(NCc3ccco3)nc3c2c(=O)n(C)c(=O)n3C)c1 [7-(2-chloro-5-methoxy-benzyl)-8-(2-furfurylamino)-1,3-dimethyl-xanthine] | < 4.00 | 
CCc1nn2cc(-c3ccccc3)nc2s1 [2-ethyl-6-phenyl-imidazo[2,1-b][1,3,4]thiadiazole] | 5.36 | 

SMILES | pIC50 | pIC50 [1]
Cn1c(=O)c2c(nc(NCc3ccco3)n2C/C=C/c2ccccc2)n(C)c1=O [7-[(E)-cinnamyl]-8-(2-furfurylamino)-1,3-dimethyl-xanthine] |  | 4.77
Cc1cnc(NC(=O)COc2ccccc2Cl)s1 [2-(2-chloranylphenoxy)-N-(5-methyl-1,3-thiazol-2-yl)ethanamide] | < 5.91 | 
O=C(CSc1nnnn1C1CC2CCC1C2)Nc1ccnc2ccccc12 (centres undefined) [2-[(1-bicyclo[2.2.1]hept-2-yl-1H-tetrazol-5-yl)thio]-N-4-quinolinylacetamide] | 6.01 | 
CCc1ccc(-c2cn3nc(C)c(C)nc3n2)cc1 [6-(4-ethylphenyl)-2,3-dimethyl-imidazo[1,2-b][1,2,4]triazine] | 5.49 | 
COc1ccc(-c2nc(CSCC(=O)NCc3ccco3)c(C)o2)cc1 [MLS000089353] | 5.23 | 
CN1C2C=C3C(C#N)=C(N)C(C#N)(C#N)[C@@H](c4ccc(Cl)cc4)[C@@H]3C1CC2 (some centres undefined) [SMR000038778] | 5.47 | 
COc1ccc(-c2cc3nc4n(c(=O)c3s2)CCC4)cc1 [2-(4-methoxyphenyl)-6,7-dihydropyrrolo[1,2-a]thieno[3,2-d]pyrimidin-9(5H)-one] | 5.36 | 
C=CCOC(=O)c1[nH]c2c(c1C)C(=O)CC(c1cc(OC)c(OC)c(OC)c1)C2 (centres undefined) [SMR000093465] |  | 4.74
CN=c1scc(C)n1N=Cc1ccc(O)cc1O [(4E)-4-[[(4-methyl-2-methylimino-1,3-thiazol-3-yl)amino]methylidene]-3-oxidanyl-cyclohexa-2,5-dien-1-one] | 4.82 | 
CCOc1cc(C(=O)N2CCc3cc(OC)c(OC)cc3C2)ccc1OC(F)F [MLS000083614] |  | 4.89
CSCc1nnc(NC(=O)c2ccc(S(=O)(=O)N(CC(C)C)CC(C)C)cc2)o1 [4-(diisobutylsulfamoyl)-N-[5-[(methylthio)methyl]-1,3,4-oxadiazol-2-yl]benzamide] | < 4.96 | 
CCOc1ccc(-c2cc(CCCC(=O)NCCc3ccc(OC)c(OC)c3OC)no2)cc1 [4-(5-p-phenetylisoxazol-3-yl)-N-[2-(2,3,4-trimethoxyphenyl)ethyl]butyramide] | 5.12 | 
CCOC(=O)CSc1nc2cc(C(=O)NCc3ccco3)ccc2c(=O)n1-c1ccc(F)cc1 [2-[[3-(4-fluorophenyl)-7-(2-furfurylcarbamoyl)-4-keto-quinazolin-2-yl]thio]acetic acid ethyl ester] | < 4.96 | 
CCCCOc1ncnc2c1[nH]c1ccc(F)cc12 [4-butoxy-8-fluoranyl-5H-pyrimido[5,4-b]indole] |  | 4.94
C[C@H]1CCCC=CC2C[C@H](O)CC2[C@H](O)C=CC(=O)O1 (stereo partly drawn) [(7S,12R,15S)-12,15-dihydroxy-7-methyl-8-oxabicyclo[11.3.0]hexadeca-2,10-dien-9-one] | 5.25 | 
Cc1cccc(NC(=O)CSc2nnc(-c3cc(C)n(-c4ccccc4)c3C)o2)c1C [MLS000036049] | < 5.91 | 
CN1Cc2cc(C(=O)c3cc(Cl)cc(CSc4ncccn4)c3O)cnc2NC1=O [6-[5-chloranyl-2-oxidanyl-3-(pyrimidin-2-ylsulfanylmethyl)phenyl]carbonyl-3-methyl-1,4-dihydropyrido[2,3-d]pyrimidin-2-one] |  | 4.90
Cc1ccc(C(C)C)c(OCCNc2nc3c(c(=O)n(C)c(=O)n3C)n2C)c1 [1,3,7-trimethyl-8-[2-(5-methyl-2-propan-2-yl-phenoxy)ethylamino]purine-2,6-dione] | < 4.00 | 
O=S1(=O)C=C(Sc2nc3cc(Cl)ccc3o2)c2ccccc21 [SMR000019512] | 5.29 | 
Fc1ccc(-c2nnc(NC3=NCCCCC3)o2)cc1 [5-(4-fluorophenyl)-N-(3,4,5,6-tetrahydro-2H-azepin-7-yl)-1,3,4-oxadiazol-2-amine] | 5.32 | 
COc1cccc2c1C(=O)c1c(O)c3c(c(O)c1C2=O)C[C@@](O)(C(C)=O)C[C@@H]3O[C@H]1C[C@H](N)[C@H](O)[C@H](C)O1 [(7S,9S)-9-acetyl-7-[(2R,4S,5S,6S)-4-amino-5-hydroxy-6-methyloxan-2-yl]oxy-6,9,11-trihydroxy-4-methoxy-8,10-dihydro-7H-tetracene-5,12-dione;hydrochloride] | 6.27 | 
Cc1ccc2[nH]c3c(N4CCCCCC4)ncnc3c2c1 [4-(azepan-1-yl)-8-methyl-5H-pyrimido[5,4-b]indole] |  | 4.96
CCCN1C=CC(=C2C(=O)c3ccccc3C2=O)C=C1 [2-(1-propyl-4-pyridinylidene)indene-1,3-dione] | 6.44 | 
Cc1ccccc1S(=O)(=O)Cc1ccc(C(=O)N2CCN(c3cccc(C)c3C)CC2)o1 [1-(2,3-dimethylphenyl)-4-(5-{[(2-methylphenyl)sulfonyl]methyl}-2-furoyl)piperazine] |  | 4.87
Fc1ccc2[nH]c3c(N4CCSCC4)ncnc3c2c1 [MLS000078401] |  | 4.93
CCOc1ccc(OCc2cccc(C(=O)N3CCOCC3)c2)cc1 [4-{3-[(4-ethoxyphenoxy)methyl]benzoyl}morpholine] | < 5.91 | 
COc1ccc(Nc2cc(C)nc(-n3nc(C)cc3C)n2)cc1 [2-(3,5-dimethyl-1-pyrazolyl)-N-(4-methoxyphenyl)-6-methyl-4-pyrimidinamine] |  | 4.90
